Our source for the residual activity and inhibition values is ChEMBL document CHEMBL5696442, “Discovery of type II inhibitors of TGFβ-activated kinase 1 (TAK1) and mitogen-activated protein kinase kinase kinase kinase 2 (MAP4K2)” (J Med Chem, 2015).

Activity calls are given as the source filed them. No cut-off for these calls is given here.

Experiment [1] concerns the target Protein kinase C delta type (Homo sapiens) (UniProt Q05655). Kind of experiment: Inhibition of PRKCD (unknown origin) at 1 uM by Ambit Kinomescan binding assay relative to control; values are per cent of control.
Experiment [2] addresses T1, Mitogen-activated protein kinase 13 (Homo sapiens) (UniProt O15264).
T1 sequence (whole entry): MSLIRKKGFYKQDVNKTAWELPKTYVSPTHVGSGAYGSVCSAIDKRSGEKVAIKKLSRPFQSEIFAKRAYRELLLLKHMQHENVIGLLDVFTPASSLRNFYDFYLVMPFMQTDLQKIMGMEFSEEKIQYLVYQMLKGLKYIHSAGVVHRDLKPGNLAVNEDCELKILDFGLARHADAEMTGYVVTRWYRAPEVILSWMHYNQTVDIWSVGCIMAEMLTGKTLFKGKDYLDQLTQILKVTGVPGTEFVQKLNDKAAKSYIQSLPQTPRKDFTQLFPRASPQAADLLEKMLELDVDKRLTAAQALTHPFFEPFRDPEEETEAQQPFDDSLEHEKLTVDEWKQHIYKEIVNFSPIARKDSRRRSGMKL
Kind of experiment: Inhibition of p38 delta (unknown origin) at 1 uM by Ambit Kinomescan binding assay relative to control.

Experiment [3] deals with Glycogen synthase kinase-3 beta (Homo sapiens) (UniProt P49841). The experiment can be described thus: Inhibition of GSK3B (unknown origin) at 10 uM by Ambit Kinomescan binding assay.
Chain of Glycogen synthase kinase-3 beta (Homo sapiens) (P49841 whole entry, looked up): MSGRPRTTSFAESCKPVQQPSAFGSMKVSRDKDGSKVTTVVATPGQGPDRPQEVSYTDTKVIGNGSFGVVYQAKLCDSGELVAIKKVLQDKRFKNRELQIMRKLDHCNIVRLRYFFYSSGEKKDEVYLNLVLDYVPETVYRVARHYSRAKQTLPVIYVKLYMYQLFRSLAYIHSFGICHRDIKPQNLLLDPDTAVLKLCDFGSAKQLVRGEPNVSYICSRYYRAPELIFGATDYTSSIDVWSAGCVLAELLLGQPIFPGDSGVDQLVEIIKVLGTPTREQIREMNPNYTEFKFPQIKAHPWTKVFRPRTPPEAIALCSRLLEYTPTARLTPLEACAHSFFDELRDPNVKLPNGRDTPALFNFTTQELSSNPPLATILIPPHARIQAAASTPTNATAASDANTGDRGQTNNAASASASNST
Experiment [4] addresses Proto-oncogene tyrosine-protein kinase receptor Ret (Homo sapiens) (UniProt P07949). Kind of experiment: Inhibition of RET (unknown origin) at 10 uM by Ambit Kinomescan binding assay relative to control; values are per cent of control.
Experiment [5] has as its system Epidermal growth factor receptor (Homo sapiens), P00533 [G719C]. Kind of experiment: Inhibition of EGFR G719C mutant (unknown origin) at 10 uM by Ambit Kinomescan binding assay relative to control.
Experiment [6] concerns the target DNA-dependent protein kinase catalytic subunit (Homo sapiens) (UniProt P78527). The experiment can be described thus: Inhibition of PRKDC ATP labeling site harbouring KGGSWIQEINVAEKNWYPR in human Huh-7 cells at 10 uM by KiNativ Profiling analysis relative to control. Type of experiment: cell-based.
The subject of experiment [7] is Mast/stem cell growth factor receptor Kit (Homo sapiens), P10721 [V559D]. Kind of experiment: Inhibition of KIT V559D mutant (unknown origin) at 10 uM by Ambit Kinomescan binding assay relative to control.
In experiment [8] the target is T2, Serine/threonine-protein kinase TAO2 (Homo sapiens) (UniProt Q9UL54).
T2 sequence (whole entry): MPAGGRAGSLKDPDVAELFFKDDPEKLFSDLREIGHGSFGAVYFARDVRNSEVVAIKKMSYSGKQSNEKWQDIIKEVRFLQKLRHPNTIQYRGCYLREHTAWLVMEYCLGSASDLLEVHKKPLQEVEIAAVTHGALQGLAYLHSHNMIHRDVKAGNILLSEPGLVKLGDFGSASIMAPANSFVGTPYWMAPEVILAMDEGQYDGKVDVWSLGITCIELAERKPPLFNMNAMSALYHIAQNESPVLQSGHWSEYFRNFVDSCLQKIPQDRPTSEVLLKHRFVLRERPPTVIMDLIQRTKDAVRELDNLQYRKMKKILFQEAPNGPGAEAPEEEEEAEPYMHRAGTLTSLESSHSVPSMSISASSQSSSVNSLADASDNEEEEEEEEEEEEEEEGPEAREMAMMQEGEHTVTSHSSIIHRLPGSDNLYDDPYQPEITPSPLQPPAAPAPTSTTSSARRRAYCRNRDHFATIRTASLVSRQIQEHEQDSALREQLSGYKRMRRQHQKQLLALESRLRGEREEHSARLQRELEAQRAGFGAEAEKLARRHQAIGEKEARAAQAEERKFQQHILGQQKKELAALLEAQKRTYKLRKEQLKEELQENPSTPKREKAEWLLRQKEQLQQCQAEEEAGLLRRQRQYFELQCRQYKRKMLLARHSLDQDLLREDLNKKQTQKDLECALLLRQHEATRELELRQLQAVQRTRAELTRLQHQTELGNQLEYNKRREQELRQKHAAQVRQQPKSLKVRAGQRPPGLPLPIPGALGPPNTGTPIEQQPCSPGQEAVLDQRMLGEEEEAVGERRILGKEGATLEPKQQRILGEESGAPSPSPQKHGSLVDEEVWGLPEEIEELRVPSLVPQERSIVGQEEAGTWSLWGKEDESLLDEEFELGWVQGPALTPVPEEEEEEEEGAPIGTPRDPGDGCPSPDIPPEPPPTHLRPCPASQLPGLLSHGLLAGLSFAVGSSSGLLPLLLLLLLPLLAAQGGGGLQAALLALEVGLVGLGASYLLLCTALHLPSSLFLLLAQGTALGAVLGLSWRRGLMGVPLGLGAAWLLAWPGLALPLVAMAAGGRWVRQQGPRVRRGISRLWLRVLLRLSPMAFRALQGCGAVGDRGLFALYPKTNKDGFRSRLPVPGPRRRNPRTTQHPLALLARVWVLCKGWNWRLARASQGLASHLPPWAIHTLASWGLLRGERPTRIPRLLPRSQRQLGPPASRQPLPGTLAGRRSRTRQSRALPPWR
Kind of experiment: Inhibition of TAO2 Lys2 labeling site in human Huh-7 cells at 1 uM by KiNativ Profiling analysis relative to control. Type of experiment: cell-based.

In experiment [9] the target is Serine/threonine-protein kinase 26 (Homo sapiens) (UniProt Q9P289). Kind of experiment: Inhibition of MST4 Lys2 labeling site in human Huh-7 cells at 1 uM by KiNativ Profiling analysis relative to control. Type of experiment: cell-based.
Chain of Serine/threonine-protein kinase 26 (Homo sapiens) (Q9P289 2-416 limits assumed): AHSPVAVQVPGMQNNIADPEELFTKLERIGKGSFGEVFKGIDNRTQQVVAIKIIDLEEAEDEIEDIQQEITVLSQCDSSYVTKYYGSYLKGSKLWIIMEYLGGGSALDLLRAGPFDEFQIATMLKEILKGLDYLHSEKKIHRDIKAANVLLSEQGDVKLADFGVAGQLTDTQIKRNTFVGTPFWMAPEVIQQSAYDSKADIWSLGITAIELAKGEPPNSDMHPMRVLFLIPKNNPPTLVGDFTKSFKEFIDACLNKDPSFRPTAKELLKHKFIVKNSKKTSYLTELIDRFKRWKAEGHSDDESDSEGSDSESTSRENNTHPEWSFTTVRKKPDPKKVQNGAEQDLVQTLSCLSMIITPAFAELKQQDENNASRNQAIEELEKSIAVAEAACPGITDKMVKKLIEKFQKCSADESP
Experiment [10] deals with Calcium/calmodulin-dependent protein kinase type 1 (Homo sapiens) (UniProt Q14012). The experiment can be described thus: Inhibition of CaMK1a Lys1 labeling site in human Huh-7 cells at 1 uM by KiNativ Profiling analysis relative to control. Type of experiment: cell-based.
Chain of Calcium/calmodulin-dependent protein kinase type 1 (Homo sapiens) (Q14012 whole entry, looked up): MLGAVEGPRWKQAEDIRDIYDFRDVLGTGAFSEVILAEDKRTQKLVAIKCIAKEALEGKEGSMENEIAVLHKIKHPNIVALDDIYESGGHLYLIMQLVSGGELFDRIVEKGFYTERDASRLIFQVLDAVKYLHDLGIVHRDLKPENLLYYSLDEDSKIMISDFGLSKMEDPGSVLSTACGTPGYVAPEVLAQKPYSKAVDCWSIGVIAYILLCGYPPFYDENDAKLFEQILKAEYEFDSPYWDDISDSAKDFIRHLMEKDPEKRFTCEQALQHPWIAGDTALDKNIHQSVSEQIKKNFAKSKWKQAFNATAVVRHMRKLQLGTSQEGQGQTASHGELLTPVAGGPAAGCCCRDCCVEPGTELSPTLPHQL

Chain of Proto-oncogene tyrosine-protein kinase receptor Ret (Homo sapiens) (P07949 whole entry): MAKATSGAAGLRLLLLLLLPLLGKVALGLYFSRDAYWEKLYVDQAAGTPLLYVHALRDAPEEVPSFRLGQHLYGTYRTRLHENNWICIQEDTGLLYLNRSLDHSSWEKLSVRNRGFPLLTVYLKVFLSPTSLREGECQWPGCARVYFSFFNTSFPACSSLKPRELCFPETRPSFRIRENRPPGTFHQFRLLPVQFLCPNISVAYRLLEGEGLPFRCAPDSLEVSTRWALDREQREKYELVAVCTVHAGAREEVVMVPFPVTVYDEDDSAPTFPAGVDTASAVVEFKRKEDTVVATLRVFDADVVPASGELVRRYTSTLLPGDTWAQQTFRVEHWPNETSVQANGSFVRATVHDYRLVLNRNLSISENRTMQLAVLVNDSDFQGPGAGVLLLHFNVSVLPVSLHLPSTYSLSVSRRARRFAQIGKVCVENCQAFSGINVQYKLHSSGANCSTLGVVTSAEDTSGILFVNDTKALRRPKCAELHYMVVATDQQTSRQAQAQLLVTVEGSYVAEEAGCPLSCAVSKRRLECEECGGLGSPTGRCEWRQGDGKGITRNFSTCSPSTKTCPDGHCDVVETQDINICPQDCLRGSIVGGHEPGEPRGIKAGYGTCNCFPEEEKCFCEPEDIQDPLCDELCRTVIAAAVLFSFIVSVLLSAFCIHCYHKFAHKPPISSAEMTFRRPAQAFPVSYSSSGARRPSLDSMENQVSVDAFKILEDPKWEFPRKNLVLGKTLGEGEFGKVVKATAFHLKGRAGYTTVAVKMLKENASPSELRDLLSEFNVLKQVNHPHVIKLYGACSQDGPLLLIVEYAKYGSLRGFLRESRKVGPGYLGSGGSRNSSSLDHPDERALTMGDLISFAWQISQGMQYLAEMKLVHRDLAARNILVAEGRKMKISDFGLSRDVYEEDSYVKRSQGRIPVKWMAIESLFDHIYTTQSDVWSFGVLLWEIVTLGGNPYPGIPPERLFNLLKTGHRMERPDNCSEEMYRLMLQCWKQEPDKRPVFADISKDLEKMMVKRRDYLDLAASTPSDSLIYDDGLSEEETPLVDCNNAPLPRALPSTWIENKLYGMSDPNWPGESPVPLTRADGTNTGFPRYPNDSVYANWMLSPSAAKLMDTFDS
Chain of Mast/stem cell growth factor receptor Kit (Homo sapiens), P10721 [V559D] (P10721 whole entry V559D): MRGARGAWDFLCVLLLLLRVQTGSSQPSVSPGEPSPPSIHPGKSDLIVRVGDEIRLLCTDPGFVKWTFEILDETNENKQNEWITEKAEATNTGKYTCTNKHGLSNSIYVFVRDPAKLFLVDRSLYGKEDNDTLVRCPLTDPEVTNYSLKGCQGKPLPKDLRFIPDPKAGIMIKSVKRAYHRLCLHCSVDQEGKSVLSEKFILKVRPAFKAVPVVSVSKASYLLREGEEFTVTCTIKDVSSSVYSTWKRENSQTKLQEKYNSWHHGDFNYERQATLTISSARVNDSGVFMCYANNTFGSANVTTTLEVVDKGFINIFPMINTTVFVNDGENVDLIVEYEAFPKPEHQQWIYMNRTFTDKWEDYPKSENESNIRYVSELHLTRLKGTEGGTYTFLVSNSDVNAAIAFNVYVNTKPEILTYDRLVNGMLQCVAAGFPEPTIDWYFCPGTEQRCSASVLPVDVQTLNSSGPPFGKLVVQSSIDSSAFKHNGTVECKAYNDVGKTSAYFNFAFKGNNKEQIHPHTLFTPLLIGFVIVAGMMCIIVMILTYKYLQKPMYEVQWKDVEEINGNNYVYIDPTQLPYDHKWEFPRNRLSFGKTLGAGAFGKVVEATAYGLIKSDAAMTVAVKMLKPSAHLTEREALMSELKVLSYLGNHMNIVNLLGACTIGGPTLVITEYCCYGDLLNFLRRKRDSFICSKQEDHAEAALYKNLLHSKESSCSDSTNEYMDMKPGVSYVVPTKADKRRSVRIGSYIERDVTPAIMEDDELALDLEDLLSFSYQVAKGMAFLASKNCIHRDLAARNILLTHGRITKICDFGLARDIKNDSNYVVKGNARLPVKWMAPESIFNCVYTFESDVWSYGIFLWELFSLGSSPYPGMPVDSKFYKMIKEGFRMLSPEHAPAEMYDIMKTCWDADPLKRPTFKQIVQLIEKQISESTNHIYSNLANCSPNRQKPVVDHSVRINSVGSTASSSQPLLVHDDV
Chain of Protein kinase C delta type (Homo sapiens) (Q05655 whole entry, looked up): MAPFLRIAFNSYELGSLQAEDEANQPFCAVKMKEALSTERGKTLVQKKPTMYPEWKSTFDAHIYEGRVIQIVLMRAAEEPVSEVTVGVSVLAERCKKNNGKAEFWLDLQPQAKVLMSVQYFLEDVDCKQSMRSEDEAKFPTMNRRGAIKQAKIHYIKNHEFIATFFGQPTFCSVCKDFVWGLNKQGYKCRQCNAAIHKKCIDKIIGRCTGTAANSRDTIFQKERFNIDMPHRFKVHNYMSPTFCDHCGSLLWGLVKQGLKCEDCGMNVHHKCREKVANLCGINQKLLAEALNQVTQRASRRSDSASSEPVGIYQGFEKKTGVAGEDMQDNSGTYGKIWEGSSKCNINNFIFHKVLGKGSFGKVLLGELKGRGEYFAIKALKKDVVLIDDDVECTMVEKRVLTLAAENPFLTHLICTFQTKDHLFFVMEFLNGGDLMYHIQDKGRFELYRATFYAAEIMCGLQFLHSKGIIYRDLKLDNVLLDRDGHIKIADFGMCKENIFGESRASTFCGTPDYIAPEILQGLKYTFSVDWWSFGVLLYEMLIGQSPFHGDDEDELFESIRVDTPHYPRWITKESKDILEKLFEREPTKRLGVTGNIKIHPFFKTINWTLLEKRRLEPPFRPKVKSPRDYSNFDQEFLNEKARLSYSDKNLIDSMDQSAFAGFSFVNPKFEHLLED

Take `CCN1CCN(Cc2ccc(NC(=O)c3ccc(C)c(/C=C/c4cnc5[nH]ccc5c4OC)c3)cc2C(F)(F)F)CC1`: the residual activity (usually the activity still measured, relative to the control) in experiment [1] came out at 60%. Besides, the inhibition (usually how much of the control response was suppressed) in experiment [2] came to 67%.
With `CCN1CCN(Cc2ccc(NC(=O)c3ccc(C)c(Oc4ccnc5[nH]ccc45)c3)cc2C(F)(F)F)CC1`, the inhibition entry in experiment [3] was “inactive”. The residual activity in experiment [4] is 0%. Further, the inhibition in experiment [5] is 12%; in [6] it was 1.9%; in experiment [7] it was 0%.
In the case of `CNc1cc(Oc2cc(C(=O)Nc3cc(N4CCN(C)CC4)cc(C(F)(F)F)c3)ccc2C)ncn1`, the inhibition came out at 35.6% in experiment [8], 25.2% in experiment [9] and 3.6% in experiment [10].
